Like-named read-outs stand apart in the source and are kept apart here. Values belong to the molecule of their own block, whether it stands above or below them.
What was measured:
[1] = orally administered to rats; ref Yang et al., 2019a; cited from earlier work
[2] = rat plasma, cited from earlier work
[3] = Stability of 2HF in mouse blood (short-term, postpreparative, freeze-thaw, long-term); format: in vitro ADME, BALB/c mouse; settings: for Deviation, short term stability / Mean concentration, short term stability: +22.0 °C; for Deviation, short term stability / Mean concentration, short term stability / Deviation, freeze-thaw stability / Mean concentration, freeze-thaw stability / Deviation, long-term stability / Mean concentration, long-term stability / Deviation, postpreparative stability / Mean concentration, postpreparative stability: n = 8; for Deviation, freeze-thaw stability / Mean concentration, freeze-thaw stability / Deviation, long-term stability / Mean concentration, long-term stability: −70.0 °C; for Deviation, freeze-thaw stability / Mean concentration, freeze-thaw stability: 6 cycles; for Deviation, postpreparative stability / Mean concentration, postpreparative stability: processed mouse blood sample, +10.0 °C
Procedure: Stability studies were initiated and completed before analyzing the studied samples. The stability in the biological matrix was evaluated through freezing and thawing cycles, short-term and long-term stability, and postpreparative. All tests were performed with eight replicates for each sample concentration level. To carry out the stability tests, an initial quantification test (TQI) was performed in accordance with local regulatory norms that aim to guarantee good practices through quality standards. In this test, samples of LQC […] and HQC […] were analyzed, in which the concentration was determined by utilizing a freshly prepared calibration curve. The number of replicates that were analyzed in each control was the same as that used in the stability tests. Freeze–thaw cycle temperatures are presented in Supplementary Table S4.
The stability of 2HF in BALB/c mouse blood was evaluated using short-term tests at 22 °C, postprocessing stability at +10 °C, stability in freeze–thaw cycles (n = 06 cycles) and long-term stability with the samples stored at −70 °C. In these assays, the quality controls of low and high concentrations, LQC: 3.00 ng/mL and HQC: 200.00 ng/mL, were used.

[4] = tested on: tumor growth; set-up: method as in earlier work; settings: single oral doses of 100 mg/kg/day or 25, 50 and 100 mg/kg every other day, ref Yue et al., 2020, Nagaprashantha et al., 2011, Singhal et al., 2018a, 2018b; cited from earlier work
[5] = Oral pharmacokinetic study of 2HF in BALB/c mouse blood (HPLC-MS/MS, non-compartmental analysis); format: in vivo; settings: BALB/c mice, single oral dose 10 mg/kg, whole blood
Procedure: BALB/c mice, with six mice per group, received a single dose of 10 mg/kg 2HF that was solubilized in DMSO (2%) and suspended in Ora-plus® (Perrigo, Minneapolis, MN, United States). ORA-Plus is an aqueous-based vehicle consisting of suspending agents that have a high degree of colloidal activity, facilitating the process involved in the extemporaneous compounding of oral suspensions. Ora-Plus contains purified water, microcrystalline cellulose, sodium carboxymethylcellulose, xanthan gum, and carrageenan as suspending agents; calcium sulfate, sodium phosphate, and citric acid as buffering agents; simethicone as an antifoaming agent; and potassium sorbate and methylparaben as preservatives, as described in the datasheet. The doses were administered orally using a gavage needle.
Mouse blood (300 µL) was collected via the orbital plexus, one mouse per time, with six replicates (6 mice per time interval). For anesthesia, an ophthalmic solution of tetracaine hydrochloride (1%) and phenylephrine hydrochloride (0,1%) was used, and one drop was administered in the chosen orbital 5 min before collection. The collection was performed with […] Pasteur pipettes that were previously autoclaved, and blood was transferred to 1.5 mL microtubes that were also heparinized. The time intervals determined were 2.5, 5, 7.5, 10, 15, 30, 45, 60, 90, 120, and 240 min after administration of the compound. After collecting all samples, 2HF was extracted as described above.
The pharmacokinetic parameters were obtained by non-compartmental analysis (NCA) using the Phoenix WinNonlin® 8.1 program (CERTARA). The maximum blood peak concentration (Cmax) and time to peak concentration (Tmax) were obtained directly from the blood concentration-time profiles. The area under the concentration-time curve from time zero to time t (AUC0–t) was obtained using the trapezoidal method. The area under the total blood concentration-time curve from time zero to infinity (AUC0–∞) was calculated using Eq. 4 as follows: AUC0–∞=AUC0–t+Clast÷kel (4) where Clast is the concentration observed at the last time, and kel is the apparent elimination rate constant obtained from the terminal slope of the blood concentration-time curve after logarithmic transformation of the blood concentrations and application of linear regression.
The blood elimination half-life (t1/2) was calculated using Eq. 5 as follows: t1/2=ln2÷kel (5)
Apparent oral clearance (CL/F) and apparent volume of distribution (Vd/F) parameters were obtained from the blood concentrations and expressed normalized to bioavailability (F) because only oral data are available.

[6] = tested on: Leishmania amazonensis; settings: ref Gervazoni et al., cited from earlier work; for In vivo effects in cutaneous leishmaniasis model: single oral dose/day, 2020
[7] = tested on: Leishmania amazonensis; set-up: method as in Gervazoni et al., 2018; settings: in vitro; ref Gervazoni et al., 2018; cited from earlier work
[8] = ref Gervazoni et al., 2020; cited from earlier work
[9] = set-up: method as in Teng et al., 2012; settings: ref Teng et al., 2012; cited from earlier work
[10] = set-up: method as in Yang et al., 2019b; settings: rats, 10 mg/kg oral dose; ref Yang et al., 2019b; cited from earlier work
[11] = oral single dose 100 mg/kg, ref Zhao et al., 2020
[12] = mouse blood, HQC nominal 200.00 ng/mL
[13] = mouse blood, LQC nominal 3.00 ng/mL
[14] = sensitive and cutaneous murine model, 2018

Compound: O=c1c(O)c(-c2cc(O)c(O)c(O)c2)oc2cc(O)cc(O)c12 [myricetin]
- T1/2 [1]: 2.46 h
- Tmax [1]: 0.22 h

Compound: O=C1c2c(O)cc(O)cc2O[C@H](c2cc(O)c(O)c(O)c2)[C@H]1O [dihydromyricetin]
- T1/2 [1]: 3.04 h
- Tmax [1]: 0.57 h

Compound: O=C(CCc1ccc(O)cc1)c1c(O)cc(O)cc1O [Phloretin]
- T1/2 [2, 11]: 2.83 h
- Tmax [2, 11]: 1.25 h

- Deviations in stability tests ([3]; biological matrix, freezing and thawing, short duration, postprocessing and long duration): less than 15%
- Deviation, short term stability [3, 12]: 7.53%
- Mean concentration, short term stability [3, 12]: 215.06 ng/mL
- Deviation, short term stability [3, 13]: 4.59%
- Mean concentration, short term stability [3, 13]: 3.14 ng/mL
- Degradation in the biological matrix ([3]; mouse blood, all stability tests performed): no significant degradation
- Deviation, freeze-thaw stability [3, 12]: 4.68%
- Mean concentration, freeze-thaw stability [3, 12]: 209.37 ng/mL
- Deviation, freeze-thaw stability [3, 13]: 1.61%
- Mean concentration, freeze-thaw stability [3, 13]: 3.05 ng/mL
- Deviation, long-term stability [3, 12]: 5.42%
- Mean concentration, long-term stability [3, 12]: 210.83 ng/mL
- Deviation, long-term stability [3, 13]: −1.33%
- Mean concentration, long-term stability [3, 13]: 2.96 ng/mL
- Deviation, postpreparative stability ([3]; HQC nominal 200.00 ng/mL): 11.08%
- Mean concentration, postpreparative stability ([3]; HQC nominal 200.00 ng/mL): 222.16 ng/mL
- Deviation, postpreparative stability ([3]; LQC nominal 3.00 ng/mL): 10.11%
- Mean concentration, postpreparative stability ([3]; LQC nominal 3.00 ng/mL): 3.30 ng/mL
- AUC0-inf [5]: 5,524.54 min x ng/mL
- AUC % extrap [5]: 7.30%
- Cl/F, total blood clearance [5]: 18.10 mL/min
- Tmax, time to reach Cmax [5]: 5 min
- AUC0-t ([5]; trapezoidal method): 5,120.98 min x ng/mL
- k el ([5]; mouse, NCA, read-out: Kel, elimination rate constant (converted)): 0.000118 s⁻¹
- half-life ([5]; mouse, NCA, read-out: T1/2, elimination half-time): 1.63 h
- Cmax ([5]; mouse, read-out: Cmax, maximum concentration): 186 ng/mL
- Vd/F ([5]; mouse, read-out: Vd/F, volume of distribution): 2.55 L
Compound: O=C1CC(c2ccccc2O)Oc2ccccc21 (centres unmarked) [2HF, 2′-Hydroxyflavanone]
- Tumor growth [4]: inhibited different types of tumor growth
- In vivo activity in experimental model of cutaneous leishmaniasis ([6]; daily doses of 50 mg/kg for 35 days, 2018): significant effect
- Lesion size [6, 14]: decrease the lesion size
- Parasitic load [6, 14]: almost cease the parasitic load
- Inhibition of promastigote and amastigote forms [7]: inhibit both the promastigote and amastigote forms

Compound: O=c1cc(-c2ccc(O)cc2)oc2cc(O)cc(O)c12 [apigenin]
- T1/2 [8]: less than 192 min
- Cmax [9]: 42 ng/mL
- T1/2 [9]: 2.11 h
- Tmax [9]: 0.50 h
- In vivo effects in cutaneous leishmaniasis model [6]: promising in vivo effects

Compound: O=c1c(O)c(-c2ccc(O)c(O)c2)oc2cc(O)cc(O)c12 [quercetin]
- T1/2 [8]: less than 192 min
- In vivo effects in cutaneous leishmaniasis model [6]: promising in vivo effects
- T1/2 [1]: 3.00 h
- Tmax [1]: 0.25 h

Compound: COc1cc(O)cc(O)c1C(=O)/C=C/c1ccccc1 [Cardamonin]
- Tmax ([2]; oral single dose 5 mg/kg, ref Jaiswal et al., 2017): 0.50 h

Compound: O=C1c2c(O)cc(O)cc2O[C@H](c2ccc(O)c(O)c2)[C@H]1O [dihydroquercetin]
- T1/2 [1]: 2.32 h
- Tmax [1]: 0.28 h

Compound: COc1cc(O)c(C(=O)/C=C/c2ccccc2)c(OC)c1 [flavokavain B]
- Cmax [10]: 265.2 ng/mL
- T1/2 [10]: 2.76 h
- Time of Cmax [10]: 1 h
